By IC50 is commonly meant the midpoint of a concentration-inhibition curve.

Each structure is given as a SMILES string. Where a name gives a salt, the structure may show the parent alone.

This test deals with T1, recombinant human PDK1 (Homo sapiens, UniProt O15530).
T1 construct: containing amino acids 51-556 of the human PDK1 enzyme; made in house; host or cells: Sf9 insect cells
T1 sequence (O15530 51-556): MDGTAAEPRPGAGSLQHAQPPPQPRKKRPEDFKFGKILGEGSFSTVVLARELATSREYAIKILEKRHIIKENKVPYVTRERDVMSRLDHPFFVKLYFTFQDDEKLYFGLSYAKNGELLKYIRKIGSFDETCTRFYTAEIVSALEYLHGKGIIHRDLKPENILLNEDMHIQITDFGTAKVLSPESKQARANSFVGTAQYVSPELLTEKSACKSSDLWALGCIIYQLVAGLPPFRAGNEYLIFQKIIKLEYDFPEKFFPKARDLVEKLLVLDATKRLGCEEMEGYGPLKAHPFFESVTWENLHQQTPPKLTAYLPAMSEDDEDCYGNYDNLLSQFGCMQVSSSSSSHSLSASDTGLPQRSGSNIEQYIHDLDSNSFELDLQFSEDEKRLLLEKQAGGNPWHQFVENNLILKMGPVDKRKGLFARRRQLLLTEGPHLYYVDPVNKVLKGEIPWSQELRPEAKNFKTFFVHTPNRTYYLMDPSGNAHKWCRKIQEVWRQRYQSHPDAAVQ
As to the kind of experiment: PDK1 IMAP fluorescence polarization kinase assay. Type of test: biochemical. The following applies: 10 nM PDK1, 100 nM peptide substrate, 100 nM PIFtide, 2.5 uM ATP, 1.5 hours. A general note: Fluorescence polarisation rises when a labelled molecule tumbles more slowly, as on binding a larger partner.
With `Cc1cc(-c2nc(C(=O)Nc3cc4[nH]ncc4cc3-c3ccc4c(c3)CNC4)cs2)[nH]n1` [Compound 5-7, N-(5-(isoindolin-5-yl)-1H-indazol-6-yl)-2-(3-methyl-1H-pyrazol-5-yl)thiazole-4-carboxamide], the half-maximal inhibitory concentration (IC50) stood at 85 nM.

For `Cc1cc(CN)ccc1-c1cc2cn[nH]c2cc1NC(=O)c1csc(-c2cc(C(F)(F)F)n[nH]2)n1` [Compound 4-6, N-(5-(4-(aminomethyl)-2-methylphenyl)-1H-indazol-6-yl)-2-(3-(trifluoromethyl)-1H-pyrazol-5-yl)thiazole-4-carboxamide], the IC50 is 108 nM.

Turning to `NC1(c2ccc(-c3cc4cn[nH]c4cc3NC(=O)c3csc(-c4cc(C(F)(F)F)n[nH]4)n3)cc2)CC1` [Compound 1-18, N-(5-(4-(1-aminocyclopropyl)phenyl)-1H-indazol-6-yl)-2-(3-(trifluoromethyl)-1H-pyrazol-5-yl)thiazole-4-carboxamide], the IC50 was 1860 nM.

Take `O=C(Nc1cc2[nH]ncc2cc1-c1cccc(CN2CCCC2)c1)c1csc(-c2cc(C(F)(F)F)n[nH]2)n1` [Compound 1-11, N-(5-(3-(pyrrolidin-1-ylmethyl)phenyl)-1H-indazol-6-yl)-2-(3-(trifluoromethyl)-1H-pyrazol-5-yl)thiazole-4-carboxamide]: the IC50 is 33 nM.

With `O=C(Nc1cc2[nH]ncc2cc1-c1cccc(CN2CCCCC2)c1)c1csc(-c2cc(C(F)(F)F)n[nH]2)n1` [Compound 3-5, N-(5-(3-(piperidin-1-ylmethyl)phenyl)-1H-indazol-6-yl)-2-(3-(trifluoromethyl)-1H-pyrazol-5-yl)thiazole-4-carboxamide hydrochloride], the IC50 worked out at 170 nM.

The record behind these values is patent US20130053382A1, “Inhibitors of Phosphoinositide Dependent Kinase 1 (PDK1)” (priority 2010, published 2013).
